Data taken from patent US9995734B2, “Human T cell line assay for evaluating the immunologic identity of glatiramer acetate preparations” (Mylan Inc., priority 2013, dated 2018).
Where “and” joins values, the source holds several entries; their conditions need not be identical. Identical values can stand only once.

Assays:
[1] = tested on: Donor 4 COP T-Cell Lines; test: ATP proliferation assay (CellTiter Glo), Donor 4 COP T-cell lines, incl. reactivity to non-canonical GA peptides; assay type: cell-based, human; conditions: for Non-Canonical Peptide Non-Reactivity: proliferation <2 times no antigen control; for Proliferation (luminescent ATP assay), Mean: T-cell line 205-1F4, Day 71, autologous B-LCL
[2] = tested on: Donor 1 COP T-Cell Lines; test: ATP proliferation assay (CellTiter Glo), Donor 1 COP T-cell lines, incl. reactivity to non-canonical GA peptides; assay type: cell-based, human; conditions: for luminescent ATP proliferation assay, mean: no antigen 5673 (Table 9)
Method in brief: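 Donor 1 COP-derived T-cell lines restimulated with GA, COP, GMA or non-canonical GA peptides (1–30 µg/mL) alongside mitomycin C-treated autologous PBMC or B-LCL APC. Proliferation read as ATP content by CellTiter Glo luminescence, 48 h after stimulation in later screens (3 days in initial split-well screens). Controls: no antigen (GMA series), MBP (COP series).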

## poly (Glu-Lys; 1:4) [GL 14]
[1]; 205-1F4
  Non-Canonical Peptide Non-Reactivity: GL 14
[1]; 205-1H3, at 1 μg/mL of antigen
  reactivity to non-canonical GA peptide: showed reactivity
[1]; 205-1H3, at least one proliferation value >=2 times no antigen control
  Non-Canonical Peptide Reactivity: GL 14
[1]; 205-1H11
  Non-Canonical Peptide Non-Reactivity: GL 14
[1]; Donor 4 COP lines, at least a 50% increase in proliferation relative to a control after stimulation with the non-canonical GA peptide
  Reactive T-Cell Line: 205-1H3 (Donor 4)
[1]; Donor 4 COP lines, stimulation with the non-canonical GA peptide
  Nonreactive T-Cell Line: 205-1F4 (Donor 4) and 205-1H11 (Donor 4)
[1]; 1 μg/mL antigen
  Proliferation (luminescent ATP assay), Mean: 12630
[1]; 3 μg/mL antigen
  Proliferation (luminescent ATP assay), Mean: 1423
[1]; 10 μg/mL antigen
  Proliferation (luminescent ATP assay), Mean: 158
[1]; T-cell line 205-1H3, 1 μg/mL antigen, 0 μg/mL 4121.0
  Reactivity (proliferation), Mean: 15619.0
[1]; T-cell line 205-1H3, 3 μg/mL antigen, 0 μg/mL 4121.0
  Reactivity (proliferation), Mean: 1053.3
[1]; T-cell line 205-1H3, 10 μg/mL antigen, 0 μg/mL 4121.0
  Reactivity (proliferation), Mean: 61.0
[1]; T-cell line 205-1H11, 1 μg/mL antigen, 0 μg/mL 6941
  Reactivity (proliferation), Mean: 5954 RLU
[1]; T-cell line 205-1H11, 10 μg/mL antigen, 0 μg/mL 6941
  Reactivity (proliferation), Mean: 102 RLU
[1]; T-cell line 205-1H11, 30 μg/mL antigen, 0 μg/mL 6941
  Reactivity (proliferation), Mean: 74 RLU
[2]; 222-2F12, Day 56, 0, 3, 10, 30 μg/mL, GL 14 response at 3 μg/mL
  proliferation response to non-canonical GA peptides: responded
[2]; 222-2F12, Day 56, 3 μg/mL
  luminescent ATP proliferation assay, mean: 17007
[2]; 222-2F12, Day 56, 10 μg/mL
  luminescent ATP proliferation assay, mean: 331
[2]; 222-2F12, Day 56, 30 μg/mL
  luminescent ATP proliferation assay, mean: 203
[2]; 222-2F12, at least one proliferation value >=2 times no antigen control
  Non-Canonical Peptide Reactivity: GL 14
[2]; Donor 1 COP lines, at least a 50% increase in proliferation relative to a control after stimulation with the non-canonical GA peptide
  Reactive T-Cell Line: 222-2F12 (Donor 1)
[2]; Donor 1 COP lines, stimulation with the non-canonical GA peptide
  Nonreactive T-Cell Line: 222-1H12 (Donor 1)
